Reference: patent US20250381157A1, “ANTIMICROBIAL COMPOUNDS” (priority 2022, published 2025)
Where “and” joins values, the source holds several entries; their conditions need not be identical. Identical values can stand only once. Like-named read-outs stand apart in the source and are kept apart here.

How the values were obtained:
Caco-2 cells = assay: Caco-2 cell study (permeability, efflux); type: in vitro ADME
Excerpt: Caco-2 cells are used as a model of the intestinal epithelial barrier.

[1] = Stability SGD, SIF w. Enzymes; type: in vitro ADME
[2] = Rat pharmacokinetics (IV, PO); type: in vivo
[3] = system: Enterotoxigenic Escherichia coli (ETEC) (ATCC ® 35401 ™, H10407); type: in vivo, mouse; details: for Body weights (Final Day) (Mean ± SD) / Log10 CFU/g [Mean ± SD] Blood / Log10 CFU/g [Mean ± SD] Kidneys / Log10 CFU/g [Mean ± SD] Liver / Log10 CFU/g [Mean ± SD] Spleen / Kidney -Raw data on Vancomycin (32 μg/ml) plates / Liver-Raw data on Vancomycin (32 μg/ml) plates / Spleen -Raw data on Vancomycin (32 μg/ml) plates / Blood -Raw data on Vancomycin (32 μg/ml) plates - on day 7 PI: PO, twice daily(q12h), 9 days; for effect on bacterial translocation: presence of cyclophosphamide, FIG. 4; for Clinical observation (Mean Score) Hunched Posture / Clinical observation (Mean Score) Lethergy / Clinical observation (Mean Score) Rough coat / Clinical observation (Mean Score) hyperpnea: 0=absent 1=present; for Kidney -Raw data on Vancomycin (32 μg/ml) plates / Liver-Raw data on Vancomycin (32 μg/ml) plates / Spleen -Raw data on Vancomycin (32 μg/ml) plates / Blood -Raw data on Vancomycin (32 μg/ml) plates - on day 7 PI: individual animals
Experimental: FIG. 3: Schematic protocol for neutropenia mouse model
A schematic of the experimental model is depicted in FIG. 3.
That experiment was performed in the presence of cyclophosphamide, which is known to cause febrile neutropenia due to translocation of bacteria to vital organs.

recombinant human HDAC1 = target: T1, recombinant human HDAC1 (Homo sapiens, UniProt Q13547); assay: HDAC1 in-vitro enzymatic assay; type: biochemical
T1 construct: purchased BPS 50051
T1 sequence (Q13547 whole entry): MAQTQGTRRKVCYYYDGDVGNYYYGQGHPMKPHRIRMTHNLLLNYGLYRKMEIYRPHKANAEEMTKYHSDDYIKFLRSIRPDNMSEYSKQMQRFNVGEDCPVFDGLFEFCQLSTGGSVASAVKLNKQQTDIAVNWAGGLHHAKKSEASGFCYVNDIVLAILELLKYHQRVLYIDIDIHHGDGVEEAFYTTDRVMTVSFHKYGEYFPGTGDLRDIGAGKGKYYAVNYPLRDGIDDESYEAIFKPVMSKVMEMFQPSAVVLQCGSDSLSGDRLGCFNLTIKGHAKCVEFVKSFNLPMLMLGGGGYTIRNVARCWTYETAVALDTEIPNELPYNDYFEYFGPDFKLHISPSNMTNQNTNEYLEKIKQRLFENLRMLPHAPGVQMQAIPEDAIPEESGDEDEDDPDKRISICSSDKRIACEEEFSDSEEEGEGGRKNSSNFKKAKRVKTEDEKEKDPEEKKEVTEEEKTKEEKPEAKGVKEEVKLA
Experimental: All of the compounds were dissolved in DMSO. A series of dilutions of the compounds were prepared with 10% DMSO in HDAC assay buffer and 5 μl of the dilution was added to a 50 μl reaction so that the final concentration of DMSO was 1% in all of reactions. The compounds were pre-incubated in duplicate at RT for 30 minutes in a mixture containing HDAC assay buffer, 5 μg BSA, HDAC enzyme and a test compound. After 30 minutes, the enzymatic reactions were initiated by the addition of HDAC substrate to a final concentration of 20 μM or 2 μM. The enzymatic reaction proceeded for 30 minutes at 37° C. After enzymatic reactions, 50 μl of 2×HDAC Developer was added to each well for the HDAC enzymes and the plate was incubated at room temperature for an additional 15 minutes. Fluorescence intensity was measured at an excitation of 360 nm and an emission of 460 nm using a Tecan Infinite M1000 microplate reader.
HDAC activity assays were performed in duplicates at each concentration. The fluorescent intensity data were analyzed using the computer software, Graphpad Prism. […] The percent activity in the presence of each compound was calculated according to the following equation: % activity=(F−Fb)/(Ft−Fb), where F=the fluorescent intensity in the presence of the compound. […] The IC50 value was determined by the concentration causing a half-maximal percent activity.

bacteria in culture = assay: in vitro toxicity to bacteria in culture; type: cell-based
[4] = Day (0), 5 mg/kg PO q12h 9 days
[5] = Day (0), 50 mg/kg PO q12h 9 days
[6] = Day (1), 5 mg/kg PO q12h 9 days
[7] = Day (1), 50 mg/kg PO q12h 9 days
[8] = Day (2), 5 mg/kg PO q12h 9 days
[9] = Day (2), 50 mg/kg PO q12h 9 days
[10] = Day (3), 5 mg/kg PO q12h 9 days
[11] = Day (3), 50 mg/kg PO q12h 9 days
[12] = Day (4), 5 mg/kg PO q12h 9 days
[13] = Day (4), 50 mg/kg PO q12h 9 days
[14] = Day (5), 5 mg/kg PO q12h 9 days
[15] = Day (5), 50 mg/kg PO q12h 9 days
[16] = Day (6), 5 mg/kg PO q12h 9 days
[17] = Day (6), 50 mg/kg PO q12h 9 days
[18] = Day (7), 5 mg/kg PO q12h 9 days
[19] = Day (7), 50 mg/kg PO q12h 9 days
[20] = Day (−1), 5 mg/kg PO q12h 9 days
[21] = Day (−1), 50 mg/kg PO q12h 9 days
[22] = Day (−2), 5 mg/kg PO q12h 9 days
[23] = Day (−2), 50 mg/kg PO q12h 9 days

Structure (SMILES): C#CCOCC(=O)Nc1ccc(C(=O)Nc2ccccc2N)cc1 [Compound 1, N-(2-aminophenyl)-4-{2-[(prop-2-yn-1-yl)oxy]acetamido}benzamide]
- Caco-2 Permeability A-B dir. (Caco-2 cells): High
- Caco-2 Permeability A-B dir. (Caco-2 cells; listed as compound 1): high
- Active efflux (Caco-2 cells; Caco-2): No
- Stability SGD, SIF w. Enzymes [1]: High
- C_max IV - rat ([2]; IV): 177 µM
- V-d IV - rat ([2]; IV): 0.565 L/kg
- C_max PO - rat ([2]; PO): 3.3 µM
- half-life ([2]; in vivo, PO, read-out: Elimination T½ (min) PO - rat): 34 min
- half-life ([2]; in vivo, intravenous, PIV, read-out: Elimination T½ (min) PIV - rat): 66 min
- bioavailability ([2]; in vivo, oral): 1%
- Body weights (Final Day) (Mean ± SD) ([3]; 5 mg/kg): 25.2 ± 1.69
- Log10 CFU/g [Mean ± SD] Blood ([3]; 5 mg/kg): 1.9 ± 0 Log10 CFU/g
- Log10 CFU/g [Mean ± SD] Kidneys ([3]; 5 mg/kg): 2.83 ± 0.29^ns Log10 CFU/g
- Log10 CFU/g [Mean ± SD] Liver ([3]; 5 mg/kg): 2.58 ± 0.32 Log10 CFU/g
- Log10 CFU/g [Mean ± SD] Spleen ([3]; 5 mg/kg): 3.05 ± 0.3^ns Log10 CFU/g
- effect on bacterial translocation ([3]; 5 mg/kg): little to no effect
- Body weights (Final Day) (Mean ± SD) ([3]; 50 mg/kg): 26.1 ± 1.20
- Log10 CFU/g [Mean ± SD] Blood ([3]; 50 mg/kg): BLOQ
- Log10 CFU/g [Mean ± SD] Kidneys ([3]; 50 mg/kg): BLOQ
- Log10 CFU/g [Mean ± SD] Liver ([3]; 50 mg/kg): BLOQ
- Log10 CFU/g [Mean ± SD] Spleen ([3]; 50 mg/kg): BLOQ
- effect on bacterial translocation ([3]; 50 mg/kg): inhibits it completely
- Clinical observation (Mean Score) Hunched Posture [3, 4]: 0.0
- Clinical observation (Mean Score) Lethergy [3, 4]: 0.0
- Clinical observation (Mean Score) Rough coat [3, 4]: 0.0
- Clinical observation (Mean Score) hyperpnea [3, 4]: 0.0
- Clinical observation (Mean Score) Hunched Posture [3, 5]: 0.0
- Clinical observation (Mean Score) Lethergy [3, 5]: 0.0
- Clinical observation (Mean Score) Rough coat [3, 5]: 0.0
- Clinical observation (Mean Score) hyperpnea [3, 5]: 0.0
- Clinical observation (Mean Score) Hunched Posture [3, 6]: 0.0
- Clinical observation (Mean Score) Lethergy [3, 6]: 0.0
- Clinical observation (Mean Score) Rough coat [3, 6]: 0.0
- Clinical observation (Mean Score) hyperpnea [3, 6]: 0.0
- Clinical observation (Mean Score) Hunched Posture [3, 7]: 0.0
- Clinical observation (Mean Score) Lethergy [3, 7]: 0.0
- Clinical observation (Mean Score) Rough coat [3, 7]: 0.0
- Clinical observation (Mean Score) hyperpnea [3, 7]: 0.0
- Clinical observation (Mean Score) Hunched Posture [3, 8]: 0.0
- Clinical observation (Mean Score) Lethergy [3, 8]: 0.0
- Clinical observation (Mean Score) Rough coat [3, 8]: 0.0
- Clinical observation (Mean Score) hyperpnea [3, 8]: 0.0
- Clinical observation (Mean Score) Hunched Posture [3, 9]: 0.0
- Clinical observation (Mean Score) Lethergy [3, 9]: 0.0
- Clinical observation (Mean Score) Rough coat [3, 9]: 0.0
- Clinical observation (Mean Score) hyperpnea [3, 9]: 0.0
- Clinical observation (Mean Score) Hunched Posture [3, 10]: 0.0
- Clinical observation (Mean Score) Lethergy [3, 10]: 0.0
- Clinical observation (Mean Score) Rough coat [3, 10]: 0.0
- Clinical observation (Mean Score) hyperpnea [3, 10]: 0.0
- Clinical observation (Mean Score) Hunched Posture [3, 11]: 0.0
- Clinical observation (Mean Score) Lethergy [3, 11]: 0.0
- Clinical observation (Mean Score) Rough coat [3, 11]: 0.0
- Clinical observation (Mean Score) hyperpnea [3, 11]: 0.0
- Clinical observation (Mean Score) Hunched Posture [3, 12]: 0.0
- Clinical observation (Mean Score) Lethergy [3, 12]: 0.0
- Clinical observation (Mean Score) Rough coat [3, 12]: 0.0
- Clinical observation (Mean Score) hyperpnea [3, 12]: 0.0
- Clinical observation (Mean Score) Hunched Posture [3, 13]: 0.0
- Clinical observation (Mean Score) Lethergy [3, 13]: 0.0
- Clinical observation (Mean Score) Rough coat [3, 13]: 0.0
- Clinical observation (Mean Score) hyperpnea [3, 13]: 0.0
- Clinical observation (Mean Score) Hunched Posture [3, 14]: 0.0
- Clinical observation (Mean Score) Lethergy [3, 14]: 0.1
- Clinical observation (Mean Score) Rough coat [3, 14]: 0.5
- Clinical observation (Mean Score) hyperpnea [3, 14]: 0.0
- Clinical observation (Mean Score) Hunched Posture [3, 15]: 0.0
- Clinical observation (Mean Score) Lethergy [3, 15]: 0.0
- Clinical observation (Mean Score) Rough coat [3, 15]: 0.0
- Clinical observation (Mean Score) hyperpnea [3, 15]: 0.0
- Clinical observation (Mean Score) Hunched Posture [3, 16]: 0.0
- Clinical observation (Mean Score) Lethergy [3, 16]: 0.4
- Clinical observation (Mean Score) Rough coat [3, 16]: 0.7
- Clinical observation (Mean Score) hyperpnea [3, 16]: 0.0
- Clinical observation (Mean Score) Hunched Posture [3, 17]: 0.0
- Clinical observation (Mean Score) Lethergy [3, 17]: 0.0
- Clinical observation (Mean Score) Rough coat [3, 17]: 0.4
- Clinical observation (Mean Score) hyperpnea [3, 17]: 0.0
- Clinical observation (Mean Score) Hunched Posture [3, 18]: 0.0
- Clinical observation (Mean Score) Lethergy [3, 18]: 0.5
- Clinical observation (Mean Score) Rough coat [3, 18]: 1.0
- Clinical observation (Mean Score) hyperpnea [3, 18]: 0.0
- Clinical observation (Mean Score) Hunched Posture [3, 19]: 0.0
- Clinical observation (Mean Score) Lethergy [3, 19]: 0.0
- Clinical observation (Mean Score) Rough coat [3, 19]: 0.4
- Clinical observation (Mean Score) hyperpnea [3, 19]: 0.0
- Clinical observation (Mean Score) Hunched Posture [3, 20]: 0.0
- Clinical observation (Mean Score) Lethergy [3, 20]: 0.0
- Clinical observation (Mean Score) Rough coat [3, 20]: 0.0
- Clinical observation (Mean Score) hyperpnea [3, 20]: 0.0
- Clinical observation (Mean Score) Hunched Posture [3, 21]: 0.0
- Clinical observation (Mean Score) Lethergy [3, 21]: 0.0
- Clinical observation (Mean Score) Rough coat [3, 21]: 0.0
- Clinical observation (Mean Score) hyperpnea [3, 21]: 0.0
- Clinical observation (Mean Score) Hunched Posture [3, 22]: 0.0
- Clinical observation (Mean Score) Lethergy [3, 22]: 0.0
- Clinical observation (Mean Score) Rough coat [3, 22]: 0.0
- Clinical observation (Mean Score) hyperpnea [3, 22]: 0.0
- Clinical observation (Mean Score) Hunched Posture [3, 23]: 0.0
- Clinical observation (Mean Score) Lethergy [3, 23]: 0.0
- Clinical observation (Mean Score) hyperpnea [3, 23]: 0.0
- Bacteria in treated animals ([3]; day 7, compound 1 at 50 mg/kg): BLOQ
- antibacterial effect in liver and blood compared to vehicle controls ([3]; day 7, p<0.05): significant dose dependent antibacterial effect
- Kidney -Raw data on Vancomycin (32 μg/ml) plates ([3]; 5 mg/kg): 2.73 Log10 CFU/g and 3.23 Log10 CFU/g and 2.66 Log10 CFU/g and 2.94 Log10 CFU/g and 3.34 Log10 CFU/g and 2.68 Log10 CFU/g and 2.59 Log10 CFU/g and 2.54 Log10 CFU/g and 2.75 Log10 CFU/g and BLOQ
- Liver-Raw data on Vancomycin (32 μg/ml) plates ([3]; 5 mg/kg): 2.67 Log10 CFU/g and 2.41 Log10 CFU/g (2×) and 3.42 Log10 CFU/g and 2.33 Log10 CFU/g and 2.39 Log10 CFU/g (2×) and 2.53 Log10 CFU/g and 2.61 Log10 CFU/g and 2.57 Log10 CFU/g
- Spleen -Raw data on Vancomycin (32 μg/ml) plates ([3]; 5 mg/kg): 3.04 Log10 CFU/g and 3.00 Log10 CFU/g and 3.51 Log10 CFU/g and 2.62 Log10 CFU/g and BLOQ (4×) and 2.91 Log10 CFU/g and 3.17 Log10 CFU/g
- Kidney -Raw data on Vancomycin (32 μg/ml) plates ([3]; 50 mg/kg): BLOQ
- Liver-Raw data on Vancomycin (32 μg/ml) plates ([3]; 50 mg/kg): BLOQ
- Spleen -Raw data on Vancomycin (32 μg/ml) plates ([3]; 50 mg/kg): BLOQ
- Blood -Raw data on Vancomycin (32 μg/ml) plates - on day 7 PI ([3]; 5 mg/kg): 1.90 Log10 CFU/g
- Blood -Raw data on Vancomycin (32 μg/ml) plates - on day 7 PI ([3]; 5 mg/kg, 5 mg/kg): BLOQ
- Blood -Raw data on Vancomycin (32 μg/ml) plates - on day 7 PI ([3]; 50 mg/kg): BLOQ
- clinical condition of animals ([3]; treated groups): apparently normal
- IC50 (recombinant human HDAC1): < 1000 nM
- inhibition at 1 µM (recombinant human HDAC1; @ 1 μM, read-out: Inhib. HDAC1): 75%
- toxicity to bacteria in culture (bacteria in culture): not toxic
